Series [1] concerns TALL-104 cells. Description: Western blot analysis of TALL-104 immune cells. It is filed as cell-based, human. The method, then: (§1) Cells were plated in a 6-well plate and incubated overnight before the spent media was replaced with drugged media. Drug treatment lasted for indicated durations. Protein was extracted using radioimmunoprecipitation (RIPA) assay buffer (Cat #R0278, Sigma-Aldrich, St. Louis, MO) containing cOmplete™, Mini, EDTA-free Protease Inhibitor Cocktail (Cat #4693159001, Roche, Basel, Switzerland) from sub-confluent cells. Denaturing sample buffer was added, samples were boiled at 95 degrees for 10 minutes, and an equal amount of protein lysate was electrophoresed through NuPAGE™ 4 to 12%, Bis-Tris, 1.5 mm, Mini Protein Gels (Invitrogen, Waltham, MA) then transferred to PVDF membranes. The PVDF membrane was blocked with 5% non-fat milk (Sigma-Aldrich, St. Louis, MO) in 1×TTBS. Primary antibodies were incubated with the transferred PVDF membrane in blocking buffer at 4° C. overnight. Secondary antibodies used included Goat anti-Rabbit IgG (H+L) Secondary Antibody, HRP (Cat #31460, Invitrogen, Waltham, MA), and Goat anti-Mouse IgG (H+L) Secondary Antibody, HRP (Cat #31430, Invitrogen, Waltham, MA). Signal was detected using Pierce™ ECL Western Blotting Substrate (Cat #32106, Thermo Scientific, Waltham, MA, USA) and a Syngene Imaging System (RRID: SCR_015770).
(A western blot detects proteins with antibodies after separation by electrophoresis.)

Series [2] deals with NK-92 natural killer cells. Briefly: Western blot analysis of NK-92 natural killer cells. The series is classed as cell-based, human. Particulars: through the 72-hour endpoint. The method, then: as §1
Series [3] is described as follows: Tolerability in the CT-26 BALB/c model (body weight, blood count, serum chemistry). More on the design: species or system BALB/c mice. Particulars: mouse, in vivo. The method, then: The experimental in vivo protocol (Protocol #19-01-003) was approved by the Institutional Animal Care and Use Committee of Brown University (Providence, RI, USA). Six to 7 weeks-old female BALB/c mice (RRID: IMSR_JAX:000651) were purchased from Taconic. 50,000 cells were suspended in 50 μL ice-cold PBS and 50 μL Matrigel (Catalog # 354234, Corning, New York, USA), and 100 uL was injected subcutaneously into the rear flanks. Once tumor volume reached at least 100 mm^3, mice were randomly assigned to one of seven groups (3 mice/group): Control (isotype), elraglusib, elraglusib+Isotype, anti-PD-1, anti-PD-L1, elraglusib+anti-PD-1, and elraglusib+anti-PD-L1. All treatments were delivered by IP injection on the following dosing schedule: Isotype (70 mg/kg, twice a week), elraglusib (70 mg/kg, twice a week), anti-PD-1 (10 mg/kg, twice a week), anti-PD-L1 (10 mg/kg, twice a week). The treatment continued until mice developed signs of discomfort from excessive tumor growth. Mice were weighed once a week to monitor signs of drug toxicity. The length (L) and width (W) of the masses were measured three times per week with a digital caliper, and the tumor volume was calculated by applying the formula: 0.5LW2. Collection of whole blood and serum was performed by cardiac puncture and sent to Antech GLP for blood cell count and chemistry tests, or in-house cytokine profiling. […]

Series [4] in a line: Patient plasma cytokine profiling (Luminex 200), Phase 1 trial. It is filed as in vivo, human. The method, then: Human cell line culture supernatants were analyzed using an R&D systems Human Premixed Multi-Analyte Kit (R&D Systems, Inc., Minneapolis, MN, USA) and a Luminex 200 (RRID: SCR_018025) Instrument (LX200-XPON-RUO, Luminex Corporation, Austin, TX, USA) according to the manufacturer's instructions. Sample levels of TNF-α, 4-1BB/TNFRSF9/CD137, IL-8/CXCL8, Ferritin, IFN-β, IL-10, CCL2/JE/MCP-1, VEGF, CXCL13/BLC/BCA-1, IFN-γ, CCL20/MIP-3 α, CCL3/MIP-1 α, CCL22/MDC, CCL4/MIP-1 β, Fas Ligand/TNFSF6, IL-17/IL-17A, IL-2, BAFF/BLyS/TNFSF13B, GM-CSF, CXCL5/ENA-78, TRANCE/TNFSF11/RANK L, CXCL9/MIG, G-CSF, IFN-γ R1/CD119, VEGFR3/Flt-4, C-Reactive Protein/CRP, CXCL11/I-TAC, IL-21, CXCL14/BRAK, IL-6, Fas/TNFRSF6/CD95, TRAIL R3/TNFRSF10C, IL-4, CCL5/RANTES, PD-L1/B7-H1, CCL7/MCP-3/MARC, Chitinase 3-like 1, CXCL10/IP-10/CRG-2, IL-1 β/IL-1F2, IL-7, Prolactin, CCL8/MCP-2, TRAIL R2/TNFRSF10B, M-CSF, IL-15, Granzyme B, IFN-α, TREM-1, IL-12/IL-23 p40, TRAIL/TNFSF10, CCL11/Eotaxin, and IL-18/IL-1F4. Quantitative analysis with 6 standards and a minimum of 50 counts per bead region was used with the Luminex to generate analyte values reported as picograms/milliliter (pg/mL). Sample concentrations less than the lower limit of detection for each particular analyte were recoded as the lower limit value divided by ten. […]

[5] abbreviates: as treatment duration increased (0-72 hours).
The mark [6] stands for this setting: immune cell lysates, cell line not given, 0-72 hours.

Each structure is given as a SMILES string.

On to `Cn1cc(C2=C(c3coc4ccc(F)cc34)C(=O)NC2=O)c2cc3c(cc21)OCO3` [elraglusib, 3-(5-fluorobenzofuran-3-yl)-4-(5-methyl-5H-[1,3]dioxolo[4,5-f]indol-7-yl)-1H-pyrrole-2,5-dione], for which, in series [1] (setting [5]), the NF-κB protein result is on record as “did not notice significant changes” and the “survival protein Bcl-2” value is on record as “did not notice significant changes”. Also, in series [1] (setting [6]), the “NF-κB-inducing kinase (NIK)” value is on record as “increases” and the “survival protein Survivin” value is on record as “increases”. In addition, the Mcl-1 protein expression entry in series [2] was “did not observe a significant decrease”. Further, the “renal function (BUN, creatinine, electrolytes)” value in series [3] is “maintained normal renal function”. The “plasma cytokines, chemokines and growth factors (many of the analytes) vs baseline” value in series [4] (8- and 24-hours post-dose) was “upregulated”. Further, in series [4] (patients receiving a 7 mg/kg dose, 8- and 24-hour post-dose), the “plasma expression of many of the analytes in the panel” value is given as “increased expression”.

(Values after US20260256741A1, “ANTICANCER MALEIMIDE DERIVATIVES FOR USE WITH IMMUNE CHECKPOINT BLOCKADE” (BROWN UNIVERSITY, priority 2022, published 2026).)
